In patent publication US20170051014A1, “PEPTIDE HAVING EFFICACY FOR REMEDYING HYPOPIGMENTATION AND INHIBITING ADIPOGENESIS, AND USE OF SAME” (CAREGEN CO., LTD., priority 2014, published 2017):
Bridge positions count the residues as written; N and C are the ends.

Experiments:
[1] = cited from earlier work; for side effects / weight loss effect: background statement on marketed anti-obesity drugs
CREB = experiment: Melanogenesis signaling molecules by western blot: CREB phosphorylation; format: cell-based, mouse; details: B16F10 cells, observed over time (6 to 24 hours)
Procedure: (§1) Melanocytes (B16F10 cell line) were incubated on 6-well culture plates in an incubator for 24 hours, and were treated with the peptide of the present invention with different concentrations. After the cells were incubated for from 6 to 24 hours, the cells were dissolved, and then the CREB phosphorylation and MITF expression, which are signaling molecules involved in melanogenesis, were observed by western blot assay using antibodies specific thereto. The test was carried out using anti-pCREB antibody (Santa Cruz Biotechnology, USA) and anti-MITF antibody (Santa Cruz Biotechnology, USA).

MITF = experiment: Melanogenesis signaling molecules by western blot: MITF; format: cell-based, mouse; details: B16F10 cells, observed over time (6 to 24 hours)
Procedure: as §1, with “[…],” for “and then the CREB phosphorylation and MITF expression,”

tyrosinase [2] = experiment: Melanogenic enzyme gene level by RT-PCR: tyrosinase; format: cell-based, mouse; details: B16F10 cells, 6-hour treatment and 24-hour treatment
Procedure: (§2) Melanocytes (B16F10 cell line) were incubated on 6-well culture plates in an incubator for 24 hours, and were treated with the peptides of the present invention with different concentrations. After the incubation for hours, the cells were taken off, and then, the increases in the expressions of tyrosinase and TRP1, which are enzymes involved in melanogenesis, were observed by RT-PCR using primers specific thereto.
(§3) Target-specific primer sequences used in PCR for enzymes involved in melanogenesis were as follows: Tyrosinase forward primer sequence, 5′-[…]-3′ and tyrosinase reverse primer sequence, 5′-[…]-3′ (annealing temperature, 51° C.); TRP1 forward primer sequence, 5′-[…]-3′ and TRP1 reverse primer sequence, 5′-[…]-3′ (annealing temperature, 60° C.)

TRP1 = experiment: Melanogenic enzyme gene level by RT-PCR: TRP1; format: cell-based, mouse; details: B16F10 cells, 6-hour treatment and 24-hour treatment
Procedure: as §2, §3

tyrosinase [3] = experiment: Melanogenic enzyme protein level by western blot: tyrosinase; format: cell-based, mouse; details: B16F10 cells, 6-hour treatment and 24-hour treatment
Procedure: Melanocytes (B16F10 cell line) were incubated on 6-well culture plates in an incubator for 24 hours, and were treated with the peptide of the present invention with different concentrations. […] The test was conducted using an anti-tyrosinase antibody (Santa Cruz Biotechnology, USA).

[4] = test system: Pre-adipocytes (3T3-L1 cell line); experiment: Measurement of triglyceride amount in differentiating pre-adipocytes; format: cell-based; details: 3T3-L1 cells with differentiation inducing material, incubation for 7 days, absorbance 540 nm
Procedure: Pre-adipocytes (3T3-L1 cell line) were incubated on 24-well plates for 48 hours, and then treated with the peptide of the present invention with different concentrations together with a differentiation composition (0.5 mM IBMX, […], […]), followed by incubation for 7 days. The cells were taken off, and then put in a dissolution buffer (50 mM Tris, 150 mM NaCl, 1% Triton X-100, proteolytic enzyme inhibitor), and kept in ice for 30 minutes. After centrifugation at 14,000 g for 10 minutes, the supernatant containing an oil layer was collected, and a triglyceride reagent was added thereto, followed by reaction in an incubator at 37° C. for 5 minutes. The absorbance was measured at 540 nm to determine the amount of triglycerides.

perilipin = experiment: Adipogenesis-related gene expression by RT-PCR: perilipin; format: cell-based; details: 3T3-L1 cells with differentiation inducing material, incubation for 7 days
Procedure: (§4) Pre-adipocytes (3T3-L1 cell line) were incubated on 6-well plates for 48 hours, and then treated with the present peptide with different concentrations together with a differentiation composition (0.5 mM IBMX, […], […]), followed by incubation for 7 days. After the incubation, PT-PCR was conducted using primers specific to perilipin and PPARγ, which are genes involved in the adipogenesis mechanism. It was investigated whether the mRNA values of perilipin and PPARγ were inhibited.
as §3, with “adipogenesis” for “melanogenesis”, “perilipin” for “Tyrosinase”, “perilipin” for “tyrosinase”, “60°” for “51°”, “PPARγ” for “TRP1”

PPARγ = experiment: Adipogenesis-related gene expression by RT-PCR: PPARγ; format: cell-based; details: 3T3-L1 cells with differentiation inducing material, incubation for 7 days
Procedure: as §4
as §3, with “adipogenesis” for “melanogenesis”, “perilipin” for “Tyrosinase”, “perilipin” for “tyrosinase”, “60°” for “51°”, “PPARγ” for “TRP1”

| Compound | side effects [1] | weight loss effect [1] | phosphorylation level of CREB (CREB) | MITF protein expression level (MITF) | expression of tyrosinase gene (tyrosinase [2]) | expression of TRP1 gene (TRP1) | expression of tyrosinase protein (tyrosinase [3]) | level of triglycerides accumulated in cells [4] | gene expression of perilipin (perilipin) | gene expression of PPARγ (PPARγ) | effect of reducing body fat ([1]; background statement on anti-obesity drugs) |
| --- | --- | --- | --- | --- | --- | --- | --- | --- | --- | --- | --- |
| CCCCCCCCCCC[C@@H](C[C@@H]1OC(=O)[C@H]1CCCCCC)OC(=O)[C@H](CC(C)C)NC=O [Xenical] | frequent diarrhea | 2-3% |  |  |  |  |  |  |  |  |  |
| NH2-Tyr-Cys-Arg-Phe-Phe-Asn-Ala-Phe-Cys-COOH (H-YCRFFNAFC-OH; disulfide 2-9 (inferred)) [SEQ ID NO: 2] |  |  | increased | increased | increased compared with a control | increased compared with a control | increased compared with a control | reduced in a concentration-dependent manner | reduced compared with a control | reduced compared with a control |  |
| Cn1c(=O)c2[nH]cnc2n(C)c1=O [aminophylline] | broad side effects throughout the mental nervous system, circulatory system, and digestive system |  |  |  |  |  |  |  |  |  | excellent effect of reducing body fat |
| NH2-Gln-Cys-Arg-Phe-Phe-Arg-Ser-Ala-Cys-COOH (H-QCRFFRSAC-OH; cysteine pairing not given here) [SEQ ID NO: 1] |  |  | increased | increased | increased compared with a control | increased compared with a control | increased compared with a control | reduced in a concentration-dependent manner | reduced compared with a control | reduced compared with a control |  |
| CC(C)CC(N(C)C)C1(c2ccc(Cl)cc2)CCC1 (stereo not shown) [Reductil] | cardiovascular diseases, such as stroke and myocardial infarction | 5-10% |  |  |  |  |  |  |  |  |  |
